Assay results from PubChem BioAssay AID1418 (Emory University Molecular Libraries Screening Center, 2008).
Calls of active or inactive are those of the source. The rule behind the calls is not given here.

Target: Induced myeloid leukemia cell differentiation protein Mcl-1 (Homo sapiens) (UniProt Q07820)
Experiment: blockers of Bid binding to Mcl-1 – biochemical, TR-FRET, dose response (AID 1418)
Details: Mcl-1/Bid peptide binding, TR-FRET (europium/Dy647), 2 hr

Sequence of Induced myeloid leukemia cell differentiation protein Mcl-1 (Homo sapiens) (Q07820 whole entry, looked up): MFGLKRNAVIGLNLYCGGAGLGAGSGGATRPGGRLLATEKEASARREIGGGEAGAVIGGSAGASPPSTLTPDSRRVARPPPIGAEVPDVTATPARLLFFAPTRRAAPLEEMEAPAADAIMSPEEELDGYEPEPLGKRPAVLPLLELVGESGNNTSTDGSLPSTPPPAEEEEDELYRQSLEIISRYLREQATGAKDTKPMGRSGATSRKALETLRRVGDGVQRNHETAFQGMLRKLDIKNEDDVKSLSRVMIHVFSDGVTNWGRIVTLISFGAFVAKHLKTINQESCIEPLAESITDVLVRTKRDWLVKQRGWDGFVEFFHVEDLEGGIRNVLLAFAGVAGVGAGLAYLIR

Row | SMILES | IC50
1 | O=C(NC1CCCC1)c1csc2c1CCCC2 | > 54 µM (inactive)
2 | C[C@@H](C(=O)Nc1nc2ccc(F)cc2s1)N1C(=O)C2CC=CCC2C1=O (stereo partly specified) | > 54 µM (inactive)
3 | Cc1ccc(-c2nc(N3CCOCC3)sc2C(=O)N2CCCCC2)cc1 | > 54 µM (inactive)
4 | O=C(CNc1ccc2ccccc2c1)N/N=C/c1ccc([N+](=O)[O-])o1 | > 54 µM (inactive)
5 | O=C(O)c1cc(N2N=C(C(F)(F)F)/C(=C/C=C/c3ccco3)C2=O)ccc1Cl | 1.4 µM
6 | O=C(Cc1c(Cl)cccc1Cl)OCC(=O)N1CCc2ccccc2C1 | > 54 µM (inactive)
7 | COc1ccccc1NC(=O)CSc1nnnn1-c1ccc2c(c1)OCO2 | > 54 µM (inactive)
8 | COc1ccc(NC(C)C(=O)Nc2ccc(C#N)cc2)cc1Cl (stereo unspecified) | > 54 µM (inactive)
9 | COc1ccc(C(=O)NCc2nnc(SCC(=O)N3CCCCC3)o2)cc1OC | > 54 µM (inactive)
10 | COCCn1cc(C(=O)N2CCC(C)CC2)c2c3ccccc3n(C)c2c1=O | inactive
11 | CN1CCCCC1c1ccc(-c2cccnc2)nc1 (stereo unspecified) | inactive
12 | COc1cc2nc(N3CCN(C(=O)c4ccco4)CC3)nc(N)c2cc1OC | > 54 µM (inactive)
13 | CCOC(=O)C1CCN(C(=O)c2cc(S(=O)(=O)N3CCOCC3)c(Cl)cc2Cl)CC1 | > 54 µM (inactive)
14 | CC1(C)Oc2ccc3ccc(=O)oc3c2C[C@H]1O | > 54 µM (inactive)
15 | O=C1Nc2ccc(Br)cc2/C1=C/C(=O)c1ccc2c(c1)OCO2 | 1.93 µM
16 | COc1ccc(NC(=O)c2[nH]ncc2[N+](=O)[O-])cc1 | > 54 µM (inactive)
17 | O=C(NC(=S)Nc1ccc(S(=O)(=O)N2CCCCC2)cc1)c1cccs1 | > 54 µM (inactive)
18 | O=C(Nc1nccs1)c1cccc(N2C(=O)c3cccc4c([N+](=O)[O-])ccc(c34)C2=O)c1 | 0.53 µM
19 | O=C1N=C2N(CCN3CCCCC3)c3ccccc3N2/C1=C\c1ccc([N+](=O)[O-])o1 | > 54 µM (inactive)
20 | COc1cc(CNc2ccc(O)cc2)cc(Br)c1OCc1ccccc1F | > 54 µM (inactive)
21 | CCCc1nc2oc3cc(OC)ccc3c(=O)c2c(=O)n1CCc1ccccc1 | > 54 µM (inactive)
22 | Cc1ccc(CNC(=O)CCS(=O)(=O)c2cccc3nonc23)cc1 | > 54 µM (inactive)
23 | COc1ccc(N/C(=C(/C(Cl)=C(Cl)Cl)[N+](=O)[O-])n2nnc3ccccc32)cc1OC | > 54 µM (inactive)
24 | Cc1ccc([N+](=O)[O-])cc1N=Nc1c(-c2ccc([N+](=O)[O-])cc2)[nH]n(C(N)=S)c1=O | 2.22 µM

Row | SMILES | IC50
25 | O=C(O)CCN1C(=O)/C(=C/c2cn(-c3ccccc3)nc2-c2cccs2)SC1=S | 6.79 µM
26 | Cc1ccc(C(=O)OC2=CC(=O)CC(C)(C)C2)cc1 | > 54 µM (inactive)
27 | COc1ccc2nc(N3C(=O)/C(=C/c4ccc(Cl)cc4)NC3=S)sc2c1 | 1.75 µM
28 | CCCN1CCC(NC(=S)Nc2ccc(C(=O)OCC)cc2)CC1 | > 54 µM (inactive)
29 | Cc1ccccc1C(=O)Nc1ccc2c(C#N)c3nc4ccccc4nc3n2c1 | 1.05 µM
30 | Cc1c(NC(=S)NC(NC(=O)C(C)C)C(Cl)(Cl)Cl)c(=O)n(-c2ccccc2)n1C (stereo unspecified) | > 54 µM (inactive)
31 | c1ccc2c(c1)ncn2CCCCOc1ccc2c(c1)CCC2 | > 54 µM (inactive)
32 | NC(=S)n1[nH]c(-c2ccc([N+](=O)[O-])cc2)c(N=Nc2cccc(Cl)c2)c1=O | 0.68 µM
33 | Cc1ccc(COc2ccc(C(=O)NN)cc2)cc1 | > 54 µM (inactive)
34 | CC1=NOC(=O)/C1=C\c1ccc(-c2ccc(Cl)cc2Cl)o1 | 1.94 µM
35 | Cc1ccc(S(=O)(=O)N2CN3CCN(C3)C2)cc1 | > 54 µM (inactive)
36 | C#CCOCCOCCOCCNc1nc(N2CCN(C(=O)[C@H](Cc3cc4ccccc4[nH]3)n3cc([C@@H](N)C(C)CC)nn3)CC2)nc(N2CCN(C(=O)[C@H](Cc3cc4ccccc4[nH]3)n3cc([C@@H](N)Cc4ccc(O)cc4)nn3)CC2)n1 (stereo partly specified) | > 54 µM (inactive)
37 | Cc1cc(NC2C3CC4CC(C3)CC2C4)n2nnnc2n1 (stereo unspecified) | > 54 µM (inactive)
38 | COc1cc(/C=N/Nc2nnc3c(n2)[nH]c2ccccc23)ccc1O | 2.66 µM
39 | COc1ccc(C(=O)C2CCCN(Cc3cn[nH]c3-c3ccc(F)cc3)C2)cc1OC (stereo unspecified) | > 54 µM (inactive)
40 | C=CCn1c(SCc2ccc(C#N)cc2)nnc1-c1cccc(OC)c1 | > 54 µM (inactive)
41 | CC(C)(C)c1nc2ccccc2c2nnc(SCC(=O)Nc3nc4ccccc4s3)n12 | 2.03 µM
42 | Cc1cccc(N=C2NC(=O)/C(=C/C=C/c3ccco3)S2)c1C | > 54 µM (inactive)
43 | C=C(C(=O)c1ccccc1)C(C(=C)C(=O)c1ccccc1)c1ccc(OC)cc1 | > 54 µM (inactive)
44 | CC(C)c1[nH]nc2c1C(c1cccnc1)C(C#N)=C(N)O2 (stereo unspecified) | > 54 µM (inactive)
45 | COc1ccccc1CN1CCN(C(=O)Cc2ccccc2)CC1 | > 54 µM (inactive)
46 | CN1C(=O)C(=Cc2sc(=O)n(-c3ccccc3)c2N2CCCCC2)C(=O)N(C)C1=O | > 54 µM (inactive)
47 | COc1cccc(NC(=O)C(=O)N/N=C/c2cc(C)n(-c3ccc(Cl)c(Cl)c3)c2C)c1 | > 54 µM (inactive)
48 | CCCCN(Cc1cc2cc(OC)ccc2[nH]c1=O)C(=O)c1ccccn1 | > 54 µM (inactive)

Row | SMILES | IC50
49 | CN1C(=O)/C(=C/c2ccccc2OCc2cccc(F)c2)NC1=S | > 54 µM (inactive)
50 | Cc1ccc(-n2c(=O)c3cc4c(=O)n(-c5ccc(C)c(C)c5)c(=O)c4c(C(=O)c4ccc(C(=O)O)cc4)c3c2=O)cc1C | 6.91 µM
51 | CCOc1ccc(-c2ccc(/C=C3/C(=N)N4C(C)=CSC4=NC3=O)o2)c([N+](=O)[O-])c1 | 0.83 µM
52 | O=C(CCN1C(=O)/C(=C/c2cccc(Br)c2)SC1=S)NNC(=O)c1cccnc1 | 4.52 µM
53 | COc1cc(OC)cc(C(=O)N(CCCN2C(=O)c3cccc4cccc(c34)C2=O)c2cccc(OC)c2)c1 | > 54 µM (inactive)
54 | O=C(Nc1ccc2sccc2c1)c1ccc(Cl)s1 | > 54 µM (inactive)
55 | COc1ccc(-n2cccc2/C=C2\C(=N)N3N=C(c4ccco4)SC3=NC2=O)cc1 | 3.22 µM
56 | Cc1ccc(S(=O)(=O)/N=C2/C=C(Sc3ncn[nH]3)C(=O)c3ccccc32)cc1 | 2.73 µM
57 | Cn1c(CSc2nc3ccccc3s2)nnc1SCC(=O)NCc1cccnc1 | > 54 µM (inactive)
58 | Cc1cc(C)c2c(c1)C1C=CCC1C(c1ccc(S(=O)(=O)N3CCOCC3)cc1)N2 (stereo unspecified) | > 54 µM (inactive)
59 | C=CCOc1c(OC)cc(/C=N/Nc2cccc(C(=O)O)c2)c(Br)c1Br | 18.3 µM
60 | CCOC(=O)c1c(-c2ccco2)csc1NC(=O)CSc1nnc(N)s1 | > 54 µM (inactive)
61 | CCCCCC#CCC#CCC#CCC#CCCCC(=O)O | 1.78 µM
62 | Cc1ccc2cc(/C=N/NC(=O)CN3CCOCC3)c(Cl)nc2c1 | > 54 µM (inactive)
63 | CCN(CC)c1ccc(/C=N/Nc2cccc(C)c2)c(O)c1 | > 54 µM (inactive)
64 | CCOc1ccc(NC(=O)c2oc3ccccc3c2NC(=O)CC)cc1 | > 54 µM (inactive)
65 | Cc1cccc2c3nc4ccccc4nc3n(CCCN3C(=O)c4ccccc4C3=O)c12 | > 54 µM (inactive)
66 | COC(=O)c1c(C)[nH]c(C(=O)C(C)[N+]23CCN(CC2)CC3)c1C (stereo unspecified) | 2.85 µM
67 | O=c1c2cnn(-c3ccccc3)c2nc(-c2cccs2)n1-c1cccc(Cl)c1 | > 54 µM (inactive)
68 | NC(=O)COc1c(-c2ccccc2)oc2ccccc2c1=O | > 54 µM (inactive)
69 | O=C(NCCc1ccccc1)C1CCN(S(=O)(=O)c2ccc(-c3nn[nH]n3)cc2)CC1 | > 54 µM (inactive)
70 | COc1ccc(C2Nc3ccccc3C(=O)N2O)cc1OC (stereo unspecified) | > 54 µM (inactive)
71 | O=C1NC(CCc2ccccc2)C(=O)N1Cc1ccccc1Cl (stereo unspecified) | > 54 µM (inactive)
72 | Cn1c(SCC(=O)N=Nc2c(O)[nH]c3ccccc23)nc2ccccc21 | > 54 µM (inactive)

Row | SMILES | IC50
73 | COc1cccc(OC)c1C(=O)N1CCN(Cc2ccncc2)CC1 | > 54 µM (inactive)
74 | COCC(=O)Nc1ncc(S(=O)(=O)c2ccc([N+](=O)[O-])cc2)s1 | > 54 µM (inactive)
75 | Cc1cc(C)nc(N(C#N)S(=O)(=O)c2ccccc2Cl)n1 | > 54 µM (inactive)
76 | C#CCOCCOCCOCCNc1nc(N2CCN(C(=O)C(Cc3ccc(O)cc3)n3cc(C(N)CC(C)C)nn3)CC2)nc(N2CCN(C(=O)C(Cc3cc4ccccc4[nH]3)n3cc(C(N)Cc4ccc(O)cc4)nn3)CC2)n1 (stereo unspecified) | > 54 µM (inactive)
77 | COc1ccc(-n2c(=O)cc(N3CCOCC3)[nH]c2=O)cc1 | > 54 µM (inactive)
78 | Cc1cccc(C(=O)Nc2ccnc(-c3cccnc3)n2)c1 | > 54 µM (inactive)
79 | O=C(COC(=O)c1ccc2ccccc2c1)NCCCc1ccccc1 | > 54 µM (inactive)
80 | Cc1nnc(SCc2cc(=O)oc3ccc4ccccc4c23)n1Cc1ccccc1 | > 54 µM (inactive)
81 | COc1cc2c(cc1OC)CN(CC(=O)Nc1ccc(C#N)cc1)CC2 | > 54 µM (inactive)
82 | CSC1=N/C(=C\c2ccccc2F)C(=O)S1 | > 54 µM (inactive)
83 | Cc1ccc(CNc2nc(C)nc3sc4c(c23)CCC4)cc1 | > 54 µM (inactive)
84 | O=C(c1ccco1)N1C(=O)c2cccc3c(S(=O)(=O)N4CCCC4)ccc1c23 | > 54 µM (inactive)
85 | CCN1CCc2c(OCc3ccc(C(=O)OC)o3)cccc2C1=O | > 54 µM (inactive)
86 | Cc1ccc2nc(NC(=O)c3ccc(-c4nc5ccccc5s4)s3)sc2c1 | 1.12 µM
87 | O=C(O)[C@@H](c1ccccc1)N1Cc2ccccc2C1=O | 0.54 µM
88 | CC1(c2ccc(Cl)cc2Cl)OCC(Cn2ccnc2)O1 (stereo unspecified) | > 54 µM (inactive)
89 | C=CCc1cccc2cc(C(=O)Nc3ccc(S(=O)(=O)Nc4nnc(CC)s4)cc3)c(=O)oc12 | > 54 µM (inactive)
90 | C#CCn1cc(/C=N/NC(=O)COc2cccc3cccnc23)c2ccccc21 | 0.86 µM
91 | CCN1C(=O)/C(=C/c2cccs2)SC1=Nc1ccc(OC)cc1 | > 54 µM (inactive)
92 | O=[N+]([O-])c1ccc(-c2nc3ccc([N+](=O)[O-])cc3[nH]2)cc1 | 13 µM
93 | NS(=O)(=O)c1ccc(N/N=C/c2ccc(O)c(O)c2O)c([N+](=O)[O-])c1 | 3.17 µM
94 | CCOc1ccc(-c2csc3ncn(-c4ccc(OC)cc4)c(=O)c23)cc1 | > 54 µM (inactive)
95 | C=CCOC(=O)/C=C/C(=O)NC(N)=O | > 54 µM (inactive)
96 | O=C1C(=Cc2cccn2-c2ccc(O)cc2)C(=O)c2ccccc21 | 2.53 µM
